# Reference: ChEMBL document CHEMBL1140940, “Pyrido[2,3-d]pyrimidin-5-ones: a novel class of antiinflammatory macrophage colony-stimulating factor-1 receptor inhibitors” (J Med Chem, 2009)
# Assays:
# [1] = Metabolic stability in rat liver microsomes after 10 mins; assay type: ADME, Microsome; conditions: read-out: Stability
# [2] = Metabolic stability in human liver microsomes after 10 mins; assay type: ADME, Microsome; conditions: read-out: Stability
# [3] = biological target: Macrophage colony-stimulating factor 1 receptor (Homo sapiens, UniProt P07333)
# Insulin receptor = Insulin receptor (Homo sapiens, UniProt P06213); assay: Inhibition of IRKbeta by fluorescence polarization competition immunoassay
# [4] = Cmax in Sprague-Dawley rat at 10 mg/kg, po; assay type: ADME, organism-based; set-up: dose 10 mg/kg, route oral; conditions: in vivo
# [5] = biological target: Proto-oncogene tyrosine-protein kinase Src (Homo sapiens, UniProt P12931); assay: Inhibition of Src by fluorescence polarization competition immunoassay
# [6] = Half life in Sprague-Dawley rat at 10 mg/kg, po; assay type: ADME, organism-based; set-up: dose 10 mg/kg, route oral; conditions: in vivo
# [7] = Half life in Sprague-Dawley rat at 2 mg/kg, iv; assay type: ADME, organism-based; set-up: dose 2 mg/kg, route intravenous; conditions: in vivo
# [8] = Clearance in Sprague-Dawley rat at 2 mg/kg, iv; assay type: ADME, organism-based; set-up: dose 2 mg/kg, route intravenous; conditions: in vivo
# [9] = biological target: T1, Tyrosine-protein kinase receptor UFO (Homo sapiens, UniProt P30530); assay: Inhibition of Axl by fluorescence polarization competition immunoassay
# T1 sequence (P30530 whole entry): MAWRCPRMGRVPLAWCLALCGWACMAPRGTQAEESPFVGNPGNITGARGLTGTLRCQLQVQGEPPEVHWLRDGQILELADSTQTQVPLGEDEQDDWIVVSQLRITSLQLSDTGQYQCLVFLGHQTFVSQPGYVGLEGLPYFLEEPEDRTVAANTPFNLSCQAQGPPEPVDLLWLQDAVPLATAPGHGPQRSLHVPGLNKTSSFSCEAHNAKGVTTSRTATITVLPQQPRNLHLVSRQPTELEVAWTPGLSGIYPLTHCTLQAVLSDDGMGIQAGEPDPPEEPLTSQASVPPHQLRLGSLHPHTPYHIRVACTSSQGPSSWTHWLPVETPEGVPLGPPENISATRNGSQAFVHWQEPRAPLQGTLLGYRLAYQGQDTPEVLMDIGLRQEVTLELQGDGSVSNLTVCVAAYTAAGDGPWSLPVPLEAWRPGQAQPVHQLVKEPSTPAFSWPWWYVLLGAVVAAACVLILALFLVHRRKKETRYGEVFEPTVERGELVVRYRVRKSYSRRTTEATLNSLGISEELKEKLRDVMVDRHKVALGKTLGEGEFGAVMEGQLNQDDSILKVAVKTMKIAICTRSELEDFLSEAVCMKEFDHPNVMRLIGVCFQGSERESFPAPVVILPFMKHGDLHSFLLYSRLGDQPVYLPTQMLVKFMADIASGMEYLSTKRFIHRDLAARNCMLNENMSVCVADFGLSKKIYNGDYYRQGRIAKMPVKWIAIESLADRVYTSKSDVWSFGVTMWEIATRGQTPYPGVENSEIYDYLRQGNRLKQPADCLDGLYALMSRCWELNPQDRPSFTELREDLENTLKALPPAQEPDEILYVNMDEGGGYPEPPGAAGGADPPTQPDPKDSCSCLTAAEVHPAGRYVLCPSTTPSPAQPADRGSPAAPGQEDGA
# [10] = biological target: Mast/stem cell growth factor receptor Kit (Homo sapiens, UniProt P10721); assay: Inhibition of KIT by fluorescence polarization competition immunoassay
# [11] = biological target: High affinity nerve growth factor receptor (Homo sapiens, UniProt P04629); assay: Inhibition of TrkA by fluorescence polarization competition immunoassay
# [12] = biological target: T2, Receptor-type tyrosine-protein kinase FLT3 (Homo sapiens, UniProt P36888); assay: Inhibition of FLT3 by fluorescence polarization competition immunoassay
# T2 sequence (P36888 whole entry): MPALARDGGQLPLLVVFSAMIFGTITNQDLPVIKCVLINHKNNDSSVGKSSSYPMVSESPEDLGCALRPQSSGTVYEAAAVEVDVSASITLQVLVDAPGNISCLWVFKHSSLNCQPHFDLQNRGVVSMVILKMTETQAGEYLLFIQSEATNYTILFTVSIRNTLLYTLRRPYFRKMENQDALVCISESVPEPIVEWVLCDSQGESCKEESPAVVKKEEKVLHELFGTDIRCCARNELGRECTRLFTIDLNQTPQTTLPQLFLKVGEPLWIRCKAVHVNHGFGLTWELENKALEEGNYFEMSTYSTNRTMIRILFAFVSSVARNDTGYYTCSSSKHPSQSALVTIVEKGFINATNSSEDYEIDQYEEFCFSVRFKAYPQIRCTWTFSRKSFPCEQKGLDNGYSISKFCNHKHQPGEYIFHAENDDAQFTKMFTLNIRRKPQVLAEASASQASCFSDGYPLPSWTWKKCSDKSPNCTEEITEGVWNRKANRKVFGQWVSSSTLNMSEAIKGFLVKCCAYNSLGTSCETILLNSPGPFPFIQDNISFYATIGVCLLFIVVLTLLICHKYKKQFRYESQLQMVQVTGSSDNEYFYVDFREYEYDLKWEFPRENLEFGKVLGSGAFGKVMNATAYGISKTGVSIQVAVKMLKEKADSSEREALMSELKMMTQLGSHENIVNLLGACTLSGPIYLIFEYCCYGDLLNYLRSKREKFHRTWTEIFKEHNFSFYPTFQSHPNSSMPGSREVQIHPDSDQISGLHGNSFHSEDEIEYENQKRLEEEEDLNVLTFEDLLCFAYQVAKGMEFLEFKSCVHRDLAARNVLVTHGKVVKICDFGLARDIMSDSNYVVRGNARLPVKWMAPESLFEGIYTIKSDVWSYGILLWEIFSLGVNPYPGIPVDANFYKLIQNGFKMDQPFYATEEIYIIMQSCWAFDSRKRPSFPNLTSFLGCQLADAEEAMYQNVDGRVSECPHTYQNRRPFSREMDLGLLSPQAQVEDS
# [13] = biological target: Platelet-derived growth factor receptor beta (Homo sapiens, UniProt P09619); assay: Inhibition of PDGFRbeta by fluorescence polarization competition immunoassay
# [14] = Volume of distribution at steady state in Sprague-Dawley rat at 2 mg/kg, iv; assay type: ADME, organism-based; set-up: dose 2 mg/kg, route intravenous; conditions: in vivo, read-out: Vdss
# [15] = Oral bioavailability in Sprague-Dawley rat at 10 mg/kg; assay type: ADME, organism-based; conditions: in vivo
# Rattus norvegicus [16] = organism: Rattus norvegicus; assay: Toxicity in rat assessed as induction of mucoid feces; assay type: organism-based; conditions: in vivo
# Rattus norvegicus [17] = organism: Rattus norvegicus; assay: Toxicity in rat assessed as induction of cold body; assay type: organism-based; conditions: in vivo
# Rattus norvegicus [18] = organism: Rattus norvegicus; assay: Toxicity in rat assessed as induction of weight loss; assay type: organism-based; conditions: in vivo
# Chain of Platelet-derived growth factor receptor beta (P09619 whole entry): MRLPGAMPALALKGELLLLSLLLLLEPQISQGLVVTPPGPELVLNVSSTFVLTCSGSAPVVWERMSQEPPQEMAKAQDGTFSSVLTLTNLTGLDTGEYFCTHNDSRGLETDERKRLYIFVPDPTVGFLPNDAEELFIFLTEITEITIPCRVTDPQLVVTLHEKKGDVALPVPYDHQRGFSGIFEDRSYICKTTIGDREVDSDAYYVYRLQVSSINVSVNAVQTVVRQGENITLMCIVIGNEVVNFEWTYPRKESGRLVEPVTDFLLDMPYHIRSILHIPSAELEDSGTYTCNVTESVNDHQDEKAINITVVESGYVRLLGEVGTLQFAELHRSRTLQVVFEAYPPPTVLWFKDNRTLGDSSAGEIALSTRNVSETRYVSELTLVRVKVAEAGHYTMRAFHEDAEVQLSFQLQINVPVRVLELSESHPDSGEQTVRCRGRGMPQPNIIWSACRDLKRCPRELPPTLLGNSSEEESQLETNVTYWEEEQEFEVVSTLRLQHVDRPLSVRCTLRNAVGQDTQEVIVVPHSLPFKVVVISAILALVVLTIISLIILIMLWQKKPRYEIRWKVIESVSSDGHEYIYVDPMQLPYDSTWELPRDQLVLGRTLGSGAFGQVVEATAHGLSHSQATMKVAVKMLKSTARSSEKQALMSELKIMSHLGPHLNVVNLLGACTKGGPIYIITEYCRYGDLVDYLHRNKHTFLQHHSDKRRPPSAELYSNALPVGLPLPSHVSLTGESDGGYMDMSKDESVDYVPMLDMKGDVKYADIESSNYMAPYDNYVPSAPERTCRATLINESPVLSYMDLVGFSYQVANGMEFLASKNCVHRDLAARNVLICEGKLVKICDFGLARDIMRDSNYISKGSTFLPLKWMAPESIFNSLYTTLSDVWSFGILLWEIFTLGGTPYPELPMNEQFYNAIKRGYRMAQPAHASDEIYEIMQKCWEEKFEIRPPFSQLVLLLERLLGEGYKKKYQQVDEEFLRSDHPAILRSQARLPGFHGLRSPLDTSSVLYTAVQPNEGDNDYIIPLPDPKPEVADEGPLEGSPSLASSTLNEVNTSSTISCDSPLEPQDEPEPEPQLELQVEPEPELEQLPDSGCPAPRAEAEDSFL
# Chain of Proto-oncogene tyrosine-protein kinase Src (P12931 2-536 limits assumed): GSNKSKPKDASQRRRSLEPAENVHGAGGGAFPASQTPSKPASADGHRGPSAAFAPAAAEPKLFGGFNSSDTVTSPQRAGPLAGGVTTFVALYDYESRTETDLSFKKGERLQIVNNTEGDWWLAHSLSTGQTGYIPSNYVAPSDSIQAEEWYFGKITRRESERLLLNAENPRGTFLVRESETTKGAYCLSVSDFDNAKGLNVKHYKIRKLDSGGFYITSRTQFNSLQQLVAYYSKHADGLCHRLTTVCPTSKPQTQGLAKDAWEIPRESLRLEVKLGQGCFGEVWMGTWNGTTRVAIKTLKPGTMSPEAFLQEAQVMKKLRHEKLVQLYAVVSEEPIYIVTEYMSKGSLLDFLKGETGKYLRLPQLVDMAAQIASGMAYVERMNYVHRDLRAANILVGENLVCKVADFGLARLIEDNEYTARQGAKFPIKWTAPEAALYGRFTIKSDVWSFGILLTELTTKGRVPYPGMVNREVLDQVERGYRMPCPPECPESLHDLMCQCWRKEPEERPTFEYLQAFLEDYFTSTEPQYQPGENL
# Chain of Macrophage colony-stimulating factor 1 receptor (P07333 whole entry): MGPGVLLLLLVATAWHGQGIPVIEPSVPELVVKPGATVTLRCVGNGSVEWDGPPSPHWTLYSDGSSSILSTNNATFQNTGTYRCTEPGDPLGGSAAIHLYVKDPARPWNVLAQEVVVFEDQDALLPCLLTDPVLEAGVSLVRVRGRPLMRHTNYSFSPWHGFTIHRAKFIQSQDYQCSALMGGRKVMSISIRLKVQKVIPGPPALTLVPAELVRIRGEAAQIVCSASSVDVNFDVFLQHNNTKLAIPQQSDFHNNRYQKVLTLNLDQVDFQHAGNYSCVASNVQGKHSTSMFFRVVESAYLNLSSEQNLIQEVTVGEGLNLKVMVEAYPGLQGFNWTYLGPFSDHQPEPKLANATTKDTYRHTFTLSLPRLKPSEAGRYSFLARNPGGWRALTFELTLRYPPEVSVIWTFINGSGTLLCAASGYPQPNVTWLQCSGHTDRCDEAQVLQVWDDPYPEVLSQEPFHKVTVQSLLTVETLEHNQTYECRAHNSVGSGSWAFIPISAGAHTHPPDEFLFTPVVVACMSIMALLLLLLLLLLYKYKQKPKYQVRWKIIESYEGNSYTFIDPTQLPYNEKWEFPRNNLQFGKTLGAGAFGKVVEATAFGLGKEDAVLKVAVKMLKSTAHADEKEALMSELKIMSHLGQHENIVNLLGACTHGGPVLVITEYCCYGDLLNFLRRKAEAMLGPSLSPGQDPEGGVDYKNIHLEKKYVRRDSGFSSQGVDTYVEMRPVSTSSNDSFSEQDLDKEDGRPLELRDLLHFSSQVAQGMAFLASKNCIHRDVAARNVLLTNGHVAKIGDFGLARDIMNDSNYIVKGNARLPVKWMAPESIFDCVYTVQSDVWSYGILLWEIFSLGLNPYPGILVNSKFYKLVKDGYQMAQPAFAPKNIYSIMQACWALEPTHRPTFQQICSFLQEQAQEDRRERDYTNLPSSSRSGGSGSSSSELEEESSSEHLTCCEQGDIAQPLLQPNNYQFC
# Chain of Mast/stem cell growth factor receptor Kit (P10721 whole entry): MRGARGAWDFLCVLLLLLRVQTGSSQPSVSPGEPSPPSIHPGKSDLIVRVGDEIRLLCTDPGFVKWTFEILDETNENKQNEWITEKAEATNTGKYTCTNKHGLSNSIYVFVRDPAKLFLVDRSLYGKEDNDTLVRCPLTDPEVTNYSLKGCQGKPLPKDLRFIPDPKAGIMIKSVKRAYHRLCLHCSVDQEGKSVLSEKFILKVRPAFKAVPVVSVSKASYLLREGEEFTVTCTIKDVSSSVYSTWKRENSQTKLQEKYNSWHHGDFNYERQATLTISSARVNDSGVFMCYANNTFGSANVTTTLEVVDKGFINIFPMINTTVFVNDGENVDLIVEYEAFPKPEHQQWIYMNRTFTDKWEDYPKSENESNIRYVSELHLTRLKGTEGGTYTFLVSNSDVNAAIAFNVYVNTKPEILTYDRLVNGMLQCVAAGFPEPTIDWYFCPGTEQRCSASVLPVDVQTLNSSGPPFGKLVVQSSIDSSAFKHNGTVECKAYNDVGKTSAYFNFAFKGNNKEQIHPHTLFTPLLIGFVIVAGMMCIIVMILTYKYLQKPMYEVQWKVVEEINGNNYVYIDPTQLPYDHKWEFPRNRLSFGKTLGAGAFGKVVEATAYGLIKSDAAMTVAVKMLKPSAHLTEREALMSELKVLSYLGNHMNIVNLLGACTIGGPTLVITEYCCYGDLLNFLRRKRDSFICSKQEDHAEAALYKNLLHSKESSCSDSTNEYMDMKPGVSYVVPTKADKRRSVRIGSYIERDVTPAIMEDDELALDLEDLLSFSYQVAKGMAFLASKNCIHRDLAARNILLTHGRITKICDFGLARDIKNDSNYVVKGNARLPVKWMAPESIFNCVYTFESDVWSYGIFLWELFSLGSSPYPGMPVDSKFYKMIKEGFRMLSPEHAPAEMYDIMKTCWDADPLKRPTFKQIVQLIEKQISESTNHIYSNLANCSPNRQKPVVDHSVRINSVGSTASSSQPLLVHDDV
# Chain of Insulin receptor (P06213 28-758 limits assumed): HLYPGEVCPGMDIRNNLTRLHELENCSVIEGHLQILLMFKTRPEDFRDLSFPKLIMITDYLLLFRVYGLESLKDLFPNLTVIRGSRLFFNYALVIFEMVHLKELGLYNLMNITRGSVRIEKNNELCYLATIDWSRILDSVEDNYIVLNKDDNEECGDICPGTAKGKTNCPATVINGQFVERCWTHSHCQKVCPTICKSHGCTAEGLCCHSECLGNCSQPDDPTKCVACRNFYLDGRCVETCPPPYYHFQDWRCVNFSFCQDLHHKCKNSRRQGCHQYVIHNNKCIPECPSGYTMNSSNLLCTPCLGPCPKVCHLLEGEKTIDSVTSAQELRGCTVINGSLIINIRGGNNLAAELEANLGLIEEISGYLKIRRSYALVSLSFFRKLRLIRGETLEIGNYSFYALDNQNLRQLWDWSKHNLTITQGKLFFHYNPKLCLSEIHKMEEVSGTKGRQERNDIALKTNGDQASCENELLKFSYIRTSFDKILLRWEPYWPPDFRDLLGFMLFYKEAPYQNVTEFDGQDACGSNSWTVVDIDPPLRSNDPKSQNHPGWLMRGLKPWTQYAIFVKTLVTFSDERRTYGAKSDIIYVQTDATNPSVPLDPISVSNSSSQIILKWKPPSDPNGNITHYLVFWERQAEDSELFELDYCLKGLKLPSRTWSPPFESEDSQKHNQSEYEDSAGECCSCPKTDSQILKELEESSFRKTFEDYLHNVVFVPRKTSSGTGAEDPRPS
# Chain of Insulin receptor (P06213 763-1382 limits assumed): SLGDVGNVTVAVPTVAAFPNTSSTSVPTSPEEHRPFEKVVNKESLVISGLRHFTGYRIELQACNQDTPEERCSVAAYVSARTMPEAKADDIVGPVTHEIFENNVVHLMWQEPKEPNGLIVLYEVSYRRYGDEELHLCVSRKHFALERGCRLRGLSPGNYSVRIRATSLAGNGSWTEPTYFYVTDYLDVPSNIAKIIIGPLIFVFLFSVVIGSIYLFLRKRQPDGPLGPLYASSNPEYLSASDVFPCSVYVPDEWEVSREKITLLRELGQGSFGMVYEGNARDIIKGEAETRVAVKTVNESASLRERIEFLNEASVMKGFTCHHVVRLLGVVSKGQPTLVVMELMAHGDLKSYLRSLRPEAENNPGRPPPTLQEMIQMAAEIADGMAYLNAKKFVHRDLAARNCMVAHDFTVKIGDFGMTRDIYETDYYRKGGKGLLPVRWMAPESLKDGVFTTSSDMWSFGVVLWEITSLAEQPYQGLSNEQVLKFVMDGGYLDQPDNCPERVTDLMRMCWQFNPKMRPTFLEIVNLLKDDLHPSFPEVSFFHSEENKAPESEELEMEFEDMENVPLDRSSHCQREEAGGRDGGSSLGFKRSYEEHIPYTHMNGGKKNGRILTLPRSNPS
Compound,remaining at 10 min [1] [%],remaining at 10 min [2] [%],IC50 [3] [nM],half-life [7] [min],clearance [8] [mL/min/kg],Vd [14] [L/kg],bioavailability [15] [%],further results
CONC(=O)c1cn(-c2ccc3c(c2)CCC3)c2nc(Nc3ccc(CCN4CCOCC4)cc3)ncc2c1=O,24,5.4,,,,,,
CCNC(=O)c1cn(-c2ccc3c(c2)CCC3)c2nc(Nc3ccc(CCN4CCN(C)CC4)cc3)ncc2c1=O,,,3.2,,,,,
CONC(=O)c1cn(-c2ccc3c(c2)CCC3)c2nc(Nc3ccc(C4CCNCC4)cc3)ncc2c1=O,93,97,0.5,,,,,
CCc1cccc(-n2cc(C(=O)NOC)c(=O)c3cnc(Nc4ccc(C5CCN(C)CC5)cc4)nc32)c1,,,0.4,,,,,
CONC(=O)c1cn(-c2ccc3c(c2)CCC3)c2nc(Nc3ccc(CCN4CCC(F)(F)CC4)cc3)ncc2c1=O,86,83,,,,,,
CONC(=O)c1cn(C2CCCCC2)c2nc(Nc3ccc(C4CCN(C)CC4)cc3)ncc2c1=O,68,96,5,,,,,
CONC(=O)c1cn(-c2ccc3c(c2)CCC3)c2nc(Nc3ccc(CCN4CCN(C)CC4)cc3)ncc2c1=O,78,,0.7,270,4,1.5,57,IC50 (Insulin receptor): 19.8 µM; Cmax [4]: 2700 nM; IC50 [5]: 1500 nM; half-life [6]: 390 min; IC50 [9]: > 500 nM; IC50 [10]: 6 nM; IC50 [11]: > 500 nM; IC50 [12]: 36 nM; IC50 [13]: 5.3 µM
CONC(=O)c1cn(-c2ccc3c(c2)CCC3)c2nc(Nc3ccc(CCN4CCNC(=O)C4)cc3)ncc2c1=O,69,35,,360,10,0.8,3,Cmax [4]: 80 nM; half-life [6]: 582 min
CONC(=O)c1cn(-c2ccc3c(c2)CCC3)c2nc(Nc3ccc(C4CCN(CC(=O)O)CC4)cc3)ncc2c1=O,99,100,,102,38,5.1,0,IC50 (Insulin receptor): 9.3 µM; IC50 [5]: 930 nM; IC50 [9]: > 500 nM; IC50 [10]: 13 nM; IC50 [11]: > 500 nM; IC50 [12]: 41 nM; IC50 [13]: > 2 µM
CN1CCN(c2ccc(Nc3ncc4c(=O)c(C(N)=O)cn(-c5ccc6c(c5)CCC6)c4n3)cc2)CC1,,,,,,,0,
CNC(=O)c1cn(-c2ccc3c(c2)CCC3)c2nc(Nc3ccc(CCN4CCOCC4)cc3)ncc2c1=O,100,,1.4,42,47,2.6,4,Cmax [4]: 130 nM; half-life [6]: 108 min
CCONC(=O)c1cn(-c2ccc3c(c2)CCC3)c2nc(Nc3ccc(CCN4CCN(C)CC4)cc3)ncc2c1=O,84,,,,,,,
CCc1ccc(-n2cc(C(=O)NOC)c(=O)c3cnc(Nc4ccc(C5CCN(C)CC5)cc4)nc32)cc1,96,75,,480,8,5.9,103,Activity (Rattus norvegicus [16]): Non-toxic; Cmax [4]: 3400 nM; Activity (Rattus norvegicus [17]): Non-toxic; half-life [6]: 486 min; Activity (Rattus norvegicus [18]): Non-toxic
CN1CCN(CCc2ccc(Nc3ncc4c(=O)c(C(=O)NCCO)cn(-c5ccc6c(c5)CCC6)c4n3)cc2)CC1,84,,0.7,,,,,
CNC(=O)c1cn(-c2ccc3c(c2)CCC3)c2nc(Nc3ccc(CCN4CCN(C)CC4)cc3)ncc2c1=O,73,,1.2,,,,,
CONC(=O)c1cn(-c2ccc3c(c2)CCC3)c2nc(Nc3ccc(CCS(=O)(=O)NC(C)=O)cc3)ncc2c1=O,83,84,,,,,,
CONC(=O)c1cn(-c2ccc3c(c2)CCC3)c2nc(Nc3ccc(CCN4CCN(C)C(=O)C4)cc3)ncc2c1=O,29,2.8,0.8,,,,,
CONC(=O)c1cn(-c2ccc3c(c2)CCC3)c2nc(NCc3ccccc3)ncc2c1=O,,,75,,,,,
CCCCNc1ncc2c(=O)c(C(=O)NOC)cn(-c3ccc4c(c3)CCC4)c2n1,,,15,,,,,
CONC(=O)c1cn(-c2ccc3c(c2)CCC3)c2nc(Nc3ccc(OC)nc3)ncc2c1=O,,,5.2,,,,,
CONC(=O)c1cn(C2CCC(C)(C)CC2)c2nc(Nc3ccc(C4CCN(C)CC4)cc3)ncc2c1=O,97,93,,,,,,
CN1CCN(CCc2ccc(Nc3ncc4c(=O)c(C(N)=O)cn(-c5ccc6c(c5)CCC6)c4n3)cc2)CC1,96,,,420,25,15.5,0,IC50 (Insulin receptor): > 42 µM; IC50 [5]: 5900 nM; IC50 [9]: > 500 nM; IC50 [10]: 20 nM; IC50 [11]: 170 nM; IC50 [12]: 1 nM; IC50 [13]: > 42 µM
CCN1CCCC(O)(c2cccc(Nc3ncc4c(=O)c(C(=O)NOC)cn(-c5ccc6c(c5)CCC6)c4n3)c2)C1 (centres undefined),89,88,,312,20.4,5.6,28,Cmax [4]: 400 nM
CONC(=O)c1cn(-c2ccc3c(c2)CCC3)c2nc(Nc3ccc(C4CCN(C)CC4(F)F)cc3)ncc2c1=O (centres undefined),44,16,0.7,,,,,
CONC(=O)c1cn(-c2ccc3c(c2)CCC3)c2nc(Nc3ccc(C4CCN(CCO)CC4)cc3)ncc2c1=O,100,80,,180,34,8.8,8,Cmax [4]: 130 nM
CC(C)ONC(=O)c1cn(-c2ccc3c(c2)CCC3)c2nc(Nc3ccc(CCN4CCN(C)CC4)cc3)ncc2c1=O,100,,0.5,,,,,
